Patent publication US9763445B2, “Safened herbicidal compositions comprising a pyridine carboxylic acid herbicide” (Dow AgroSciences, LLC, priority 2014, dated 2017)

Columns and labels:
cornflower (CENCY) = test: Postemergence greenhouse trial, % visual injury on cornflower; assay type: in vivo, Centaurea cyanus or Cyanus segetum; details: alone
Method: (§1) Seeds of the desired test plant species were planted in Sun Gro MetroMix® 306 planting mixture, which typically has a pH of 6.0 to 6.8 and an organic matter content of about 30 percent, in plastic pots with a surface area of 103.2 square centimeters (cm^2). When required to ensure good germination and healthy plants, a fungicide treatment and/or other chemical or physical treatment was applied. The plants were grown for 7-36 days (d) in a greenhouse with an approximate 14-hour (h) photoperiod which was maintained at about 23° C. during the day and 22° C. during the night. Nutrients and water were added on a regular basis and supplemental lighting was provided with overhead metal halide 1000-Watt lamps as necessary. The plants were employed for testing when they reached the second or third true leaf stage.
(§2) Weighed amounts of technical material were dissolved in a volume of 97:3 volume per volume (v/v) acetone/dimethyl sulfoxide (DMSO) to stock solutions. […] The concentrated stock solutions were diluted with an aqueous mixture of 1.5% v/v of Agri-dex crop oil concentrate to provide the appropriate application rates. Compound requirements are based upon a 12 milliliter (mL) application volume at a rate of 187 liters per hectare (L/ha). Stocks solutions of the safeners were prepared following the same procedure. Spray solutions of the safeners and experimental compound mixtures were prepared by adding the stock solutions to the appropriate amount of dilution solution to form a 12 mL spray solution in two-way combinations. Formulated compounds were applied to the plant material with an overhead Mandel track sprayer equipped with 8002E nozzles calibrated to deliver 187 L/ha over an application area of 0.503 square meters (m^2) at a spray height of 18 inches (43 centimeters (cm)) above average plant canopy. Control plants were sprayed in the same manner with the solvent blank. All herbicide application (component a) rates are in g ae/ha and all safener (component b) rates are in g ai/ha.
(§3) The treated plants and control plants were placed in a greenhouse as described above and watered by sub-irrigation to prevent wash-off of the test compounds. After 20-22 d, the condition of the test plants as compared with that of the control plants was determined visually and scored on a scale of 0 to 100 percent where 0 corresponds to no injury and 100 corresponds to complete kill. The condition of the test plants was compared with that of the control plants as determined visually and scored on a scale of 0 to 100 percent, where 0 corresponds to no injury and 100 corresponds to complete kill. Colby's equation was used to determine the herbicidal effects expected from the mixtures.
(§4) The safener cloquintocet-mexyl was combined with compound 1, compound 2, compound 3, compound 7, compound 8, compound 9, compound 10, compound 11, compound 12, compound 13, compound 14, compound 15, compound 16, compound 17, compound 18, compound 19, and compound 20, and applied to spring wheat (TRZAS), winter wheat (TRZAW), and spring barley (HORVS) and the phytotoxicity of the herbicidal compositions was measured. […]

nutsedge (CYPES) = test: Postemergence greenhouse trial, % visual injury on nutsedge; assay type: in vivo, Cyperus esculentus; details: for % visual injury, observed (Ob): CYPES
How it was run: (§5)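 Injury was scored visually (0 = none, 100 = complete kill) 20–22 d after track-sprayer application at 187 L/ha, compared with solvent-sprayed controls. Test plants at the 2–3 true leaf stage; herbicide (g ae/ha) plus cloquintocet-mexyl safener (g ai/ha) in crop-oil-containing spray; expected mixture response by Colby.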

prickly lettuce (LACSE) = test: Postemergence greenhouse trial, % visual injury on prickly lettuce; assay type: in vivo, Lactuca serriola
Method: as §1, §2
as §3, with “mixtures. […]” for “mixtures.”

corn/maize (ZEAMX) = test: Postemergence greenhouse trial, % visual injury on corn/maize; assay type: in vivo, Zea mays; details: for % visual injury, observed (Ob): ZEAMX
How it was run: as §5

cleavers (GALAP) = test: Postemergence greenhouse trial, % visual injury on cleavers; assay type: in vivo, Galium aparine
Method: as §1, §2, §3, §4

wild buckwheat (POLCO) = test: Postemergence greenhouse trial, % visual injury on wild buckwheat; assay type: in vivo, Polygonum convolvulus; details: for % visual injury, observed (Ob): POLCO
How it was run: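 Visual injury, 0 (none) to 100 (complete kill), rated 20-22 d after overhead track-sprayer application at 187 L/ha; Colby's equation gave expected mixture responses. Herbicide (g ae/ha) and cloquintocet-mexyl safener (g ai/ha) diluted in aqueous 1.5% v/v Agri-dex, applied to weeds at 2–3 true leaves.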

winter wheat (TRZAW) = test: Postemergence greenhouse trial, % visual injury on winter wheat; assay type: in vivo, Triticum aestivum
How it was run: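 Greenhouse crops at second to third true leaf stage sprayed postemergence at 187 L/ha with herbicide (g ae/ha) plus safener (g ai/ha) in acetone/DMSO diluted into 1.5% v/v Agri-dex. Injury scored visually versus solvent-blank controls after 20-22 d, 0 (none) to 100% (complete kill); expected mixture effects by Colby's equation.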

CCCCCC(C)OC(=O)COc1ccc(Cl)c2cccnc12 (stereo not shown) [CQC-m, cloquintocet-mexyl, reference compound]
0%: % visual injury, Ob (cornflower (CENCY); 4.375 g/ha) | % visual injury, Ob (cornflower (CENCY); 8.75 g/ha) | % visual injury, Ob (cornflower (CENCY); 35 g/ha) | % visual injury, observed (Ob) (nutsedge (CYPES); safener alone 2.5 g/ha) | % visual injury, observed (Ob) (nutsedge (CYPES); safener alone 5 g/ha) | % visual injury, observed (Ob) (nutsedge (CYPES); safener alone 10 g/ha) | % visual injury, observed (Ob) (nutsedge (CYPES); safener alone 20 g/ha) | % visual injury, Ob (nutsedge (CYPES); alone, 35 g/ha) | % visual injury, Ob (prickly lettuce (LACSE); LACSE, compound 0, CQC-m 4.375 g/ha) | % visual injury, Ob (prickly lettuce (LACSE); LACSE, compound 0, CQC-m 8.75 g/ha) | % visual injury, Ob (prickly lettuce (LACSE); LACSE, compound 0, CQC-m 17.5 g/ha) | % visual injury, Ob (prickly lettuce (LACSE); LACSE, compound 0, CQC-m 35 g/ha) | % visual injury, Ob (prickly lettuce (LACSE); LACSE, compound 0, CQC-m 70 g/ha) | % visual injury, Ob (prickly lettuce (LACSE); LACSE, compound 0 g/ha, CQC-m 4.375 g/ha) | % visual injury, Ob (prickly lettuce (LACSE); LACSE, compound 0 g/ha, CQC-m 8.75 g/ha) | % visual injury, Ob (prickly lettuce (LACSE); LACSE, compound 0 g/ha, CQC-m 17.5 g/ha) | % visual injury, Ob (prickly lettuce (LACSE); LACSE, compound 0 g/ha, CQC-m 35 g/ha) | % visual injury, Ob (prickly lettuce (LACSE); LACSE, compound 0 g/ha, CQC-m 70 g/ha) | % visual injury, Ob (prickly lettuce (LACSE); alone, 4.375 g/ha) | % visual injury, Ob (prickly lettuce (LACSE); alone, 8.75 g/ha) | % visual injury, Ob (prickly lettuce (LACSE); alone, 17.5 g/ha) | % visual injury, Ob (prickly lettuce (LACSE); alone, 35 g/ha) | % visual injury, Ob (prickly lettuce (LACSE); alone, 70 g/ha) | % visual injury, observed (Ob) (corn/maize (ZEAMX); safener alone 2.5 g/ha) | % visual injury, observed (Ob) (corn/maize (ZEAMX); safener alone 5 g/ha) | % visual injury, observed (Ob) (corn/maize (ZEAMX); safener alone 10 g/ha) | % visual injury, observed (Ob) (corn/maize (ZEAMX); safener alone 20 g/ha) | % visual injury, Ob (corn/maize (ZEAMX); alone, 35 g/ha) | % visual injury, Ob (cleavers (GALAP); 4.375 g/ha, applied alone) | % visual injury, Ob (cleavers (GALAP); 8.75 g/ha, applied alone) | % visual injury, Ob (cleavers (GALAP); 17.5 g/ha, applied alone) | % visual injury, Ob (cleavers (GALAP); 35 g/ha, applied alone) | % visual injury, Ob (cleavers (GALAP); 70 g/ha, applied alone) | % visual injury, Ob (cleavers (GALAP); compound 0 g/ha, CQC-m 4.375 g/ha) | % visual injury, Ob (cleavers (GALAP); compound 0 g/ha, CQC-m 8.75 g/ha) | % visual injury, Ob (cleavers (GALAP); compound 0 g/ha, CQC-m 17.5 g/ha) | % visual injury, Ob (cleavers (GALAP); compound 0 g/ha, CQC-m 35 g/ha) | % visual injury, Ob (cleavers (GALAP); compound 0 g/ha, CQC-m 70 g/ha) | % visual injury, observed (Ob) (wild buckwheat (POLCO); compound 8 0 + CQC-m 4.375 g/ha) | % visual injury, observed (Ob) (wild buckwheat (POLCO); compound 8 0 + CQC-m 8.75 g/ha) | % visual injury, observed (Ob) (wild buckwheat (POLCO); compound 8 0 + CQC-m 17.5 g/ha) | % visual injury, observed (Ob) (wild buckwheat (POLCO); compound 8 0 + CQC-m 35 g/ha) | % visual injury, observed (Ob) (wild buckwheat (POLCO); compound 8 0 + CQC-m 70 g/ha) | % visual injury, Ob (wild buckwheat (POLCO); alone, 35 g/ha) | % visual injury, Ob (winter wheat (TRZAW); TRZAW, compound 0 g/ha, CQC-m 35 g/ha) | % visual injury, Ob (winter wheat (TRZAW); TRZAW, compound 0 g/ha, CQC-m 70 g/ha) | % visual injury, observed (Ob) (winter wheat (TRZAW); TRZAW, safener alone 2.5 g/ha) | % visual injury, observed (Ob) (winter wheat (TRZAW); TRZAW, safener alone 5 g/ha) | % visual injury, observed (Ob) (winter wheat (TRZAW); TRZAW, safener alone 10 g/ha) | % visual injury, observed (Ob) (winter wheat (TRZAW); TRZAW, safener alone 20 g/ha) | % visual injury, Ob (winter wheat (TRZAW); alone, 35 g/ha) | % visual injury, Ob (winter wheat (TRZAW); alone, 70 g/ha)
